Measurements: BindingDB's records for doi:10.1016/j.bioorg.2017.02.010 (Charles University, 2017)
Values joined by “and” are separate entries in the source; they are usually repeats but may differ in a detail not shown here. Identical values can stand only once.

Tests used:
[1] = target: Carboxylic ester hydrolase (Equus caballus, UniProt Q9N1N9); experiment: Cholinesterase Inhibition Assay
[2] = target: Acetylcholinesterase (Electrophorus electricus, UniProt O42275); experiment: Cholinesterase Inhibition Assay
Sequence of Acetylcholinesterase (O42275 whole entry): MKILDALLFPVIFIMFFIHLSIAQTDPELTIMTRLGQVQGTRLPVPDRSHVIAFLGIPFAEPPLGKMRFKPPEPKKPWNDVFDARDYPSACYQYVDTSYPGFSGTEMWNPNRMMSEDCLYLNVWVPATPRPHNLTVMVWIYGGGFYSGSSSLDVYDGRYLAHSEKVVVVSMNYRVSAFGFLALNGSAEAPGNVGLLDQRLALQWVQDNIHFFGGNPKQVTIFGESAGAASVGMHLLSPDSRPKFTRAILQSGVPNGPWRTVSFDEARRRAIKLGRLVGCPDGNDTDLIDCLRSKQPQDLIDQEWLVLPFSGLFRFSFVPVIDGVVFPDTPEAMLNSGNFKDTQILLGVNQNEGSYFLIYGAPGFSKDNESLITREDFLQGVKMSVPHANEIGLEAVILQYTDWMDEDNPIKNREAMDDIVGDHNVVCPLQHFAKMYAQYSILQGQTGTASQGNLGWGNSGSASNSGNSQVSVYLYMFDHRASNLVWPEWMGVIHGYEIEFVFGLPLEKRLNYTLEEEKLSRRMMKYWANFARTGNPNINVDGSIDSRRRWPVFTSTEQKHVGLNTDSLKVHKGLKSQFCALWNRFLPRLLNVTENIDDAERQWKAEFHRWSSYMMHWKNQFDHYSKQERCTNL

Sequence of Carboxylic ester hydrolase (Q9N1N9 whole entry): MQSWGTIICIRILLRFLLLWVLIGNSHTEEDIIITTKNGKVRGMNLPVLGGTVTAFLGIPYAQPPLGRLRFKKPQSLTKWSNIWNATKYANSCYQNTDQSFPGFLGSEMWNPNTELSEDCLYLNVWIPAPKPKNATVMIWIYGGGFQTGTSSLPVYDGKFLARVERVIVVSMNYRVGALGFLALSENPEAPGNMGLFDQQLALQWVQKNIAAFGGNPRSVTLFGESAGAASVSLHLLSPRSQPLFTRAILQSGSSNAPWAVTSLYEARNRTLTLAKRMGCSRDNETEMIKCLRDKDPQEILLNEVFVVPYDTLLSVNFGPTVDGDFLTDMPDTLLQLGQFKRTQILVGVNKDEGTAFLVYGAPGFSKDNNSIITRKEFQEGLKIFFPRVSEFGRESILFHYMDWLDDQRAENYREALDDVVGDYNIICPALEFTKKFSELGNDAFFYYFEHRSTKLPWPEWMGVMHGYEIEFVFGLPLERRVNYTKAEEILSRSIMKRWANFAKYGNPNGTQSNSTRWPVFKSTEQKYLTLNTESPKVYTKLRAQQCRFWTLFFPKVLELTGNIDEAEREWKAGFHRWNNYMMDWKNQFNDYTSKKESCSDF

In the case of `CC(=O)NC(Cc1cccc(F)c1)C(=O)Oc1ccc([N+](=O)[O-])cc1` (centres undefined) [4-Nitrophenyl 2-acetamido-3-(3-fluorophenyl)propanoate (2h)], the IC50 [1] is reported as 142 µM and the IC50 [2] is reported as 74.3 µM.
In the case of `CC(=O)NC(Cc1ccc(F)cc1)C(=O)Oc1ccc([N+](=O)[O-])cc1` (centres undefined) [4-Nitrophenyl 2-acetamido-3-(4-fluorophenyl)propanoate (3h)], the IC50 [1] is reported as 126 µM and the IC50 [2] is reported as 60 µM.
With `CC(=O)NC(Cc1cccc(F)c1)C(=O)Oc1ccc(C)cc1` (centres undefined) [4-Methylphenyl 2-acetamido-3-(3-fluorophenyl)propanoate (2g)] the IC50 [1] was 90.9 µM and the IC50 [2] was 68.5 µM.
`CC(=O)NC(Cc1ccccc1F)C(=O)Oc1ccc([N+](=O)[O-])cc1` (centres undefined) [4-Nitrophenyl 2-acetamido-3-(2-fluorophenyl)propanoate (1h)] gave an IC50 [1] of 77.5 µM and an IC50 [2] of 76.7 µM.
Work on `CC(=O)NC(Cc1cccc(F)c1)C(=O)Nc1ccccc1` (centres undefined) [2-Acetamido-3-(3-fluorophenyl)-N-phenylpropanamide (2e)] yielded an IC50 [1] of 157 µM and an IC50 [2] of 86.5 µM.
For `CC(=O)NC(Cc1ccccc1F)C(=O)Oc1ccccc1` (centres undefined) [Phenyl 2-acetamido-3-(2-fluorophenyl)propanoate (1j)], the IC50 [1] was 30 µM and the IC50 [2] was 79.2 µM.
Work on `CC(=O)NC(Cc1cccc(F)c1)C(=O)Oc1ccccc1` (centres undefined) [Phenyl 2-acetamido-3-(3-fluorophenyl)propanoate (2j)] yielded an IC50 [1] of 53.7 µM and an IC50 [2] of 87.8 µM.
`CC(=O)NC(Cc1ccc(F)cc1)C(=O)Nc1ccc(Cl)cc1` (centres undefined) [2-Acetamido-N-(4-chlorophenyl)-3-(4-fluorophenyl)propanamide (3a)] showed an IC50 [1] of 235 µM and an IC50 [2] of 97 µM.
For `CC(=O)NC(Cc1cccc(F)c1)C(=O)Nc1ccc(C)cc1` (centres undefined) [2-Acetamido-3-(3-fluorophenyl)-N-(4-methylphenyl)propanamide (2b)], the IC50 [1] was 143 µM and the IC50 [2] was 68.7 µM.
With `CC(=O)NC(Cc1ccc(F)cc1)C(=O)Nc1ccc(C)cc1` (centres undefined) [2-Acetamido-3-(4-fluorophenyl)-N-(4-methylphenyl)propanamide (3b)] the IC50 [1] was 154 µM and the IC50 [2] was 69 µM.
With `CC(=O)NC(Cc1ccccc1F)C(=O)Oc1ccc(C)cc1` (centres undefined) [4-Methylphenyl 2-acetamido-3-(2-fluorophenyl)propanoate (1g)] the IC50 [1] was 85.4 µM and the IC50 [2] was 57.9 µM.
`CC(=O)NC(Cc1ccccc1F)C(=O)Nc1ccc(C)cc1` (centres undefined) [2-Acetamido-3-(2-fluorophenyl)-N-(4-methylphenyl)propanamide (1b)] gave an IC50 [1] of 113 µM and an IC50 [2] of 69 µM.
Work on `CC(=O)NC(Cc1ccc(F)cc1)C(=O)Oc1ccc(C)cc1` (centres undefined) [4-Methylphenyl 2-acetamido-3-(4-fluorophenyl)propanoate (3g)] yielded an IC50 [1] of 83.3 µM and an IC50 [2] of 73.3 µM.
Work on `CC(=O)NC(Cc1ccc(F)cc1)C(=O)Oc1ccccc1` (centres undefined) [Phenyl 2-acetamido-3-(4-fluorophenyl)propanoate (3j)] yielded an IC50 [1] of 8.25 µM and an IC50 [2] of 98.3 µM.
`CC(=O)NC(Cc1cccc(F)c1)C(=O)Nc1ccc(Cl)cc1` (centres undefined) [2-Acetamido-N-(4-chlorophenyl)-3-(3-fluorophenyl)propanamide (2a)] showed an IC50 [1] of 170 µM and an IC50 [2] of 70.7 µM.
`CC(=O)NC(Cc1ccccc1F)C(=O)O` (centres undefined) [2-acetamido-3-(2-fluorophenyl)propanoic acid (1)] was tested, and the IC50 [1] was 217 µM and the IC50 [2] was 64.2 µM.
Compound `CC(=O)NC(Cc1ccc(F)cc1)C(=O)Nc1ccc([N+](=O)[O-])cc1` (centres undefined) [2-Acetamido-3-(4-fluorophenyl)-N-(4-nitrophenyl)propanamide (3c)] has an IC50 [1] of 162 µM and an IC50 [2] of 66 µM.
For `CC(=O)NC(Cc1ccc(F)cc1)C(=O)Oc1ccc(Cl)cc1` (centres undefined) [4-Chlorophenyl 2-acetamido-3-(4-fluorophenyl)propanoate (3f)], the IC50 [1] was 59.1 µM and the IC50 [2] was 131 µM.
`CC(=O)NC(Cc1cccc(F)c1)C(=O)O` (centres undefined) [2-acetamido-3-(3-fluorophenyl)propanoic acid (2)] showed an IC50 [1] of 210 µM and an IC50 [2] of 63.6 µM.
`CC(=O)NC(Cc1ccccc1F)C(=O)Nc1ccc(Cl)cc1` (centres undefined) [2-Acetamido-N-(4-chlorophenyl)-3-(2-fluorophenyl)propanamide (1a)] showed an IC50 [1] of 227 µM and an IC50 [2] of 76.5 µM.
`CC(=O)NC(Cc1cccc(F)c1)C(=O)Nc1ccc(C(F)(F)F)cc1` (centres undefined) [2-Acetamido-3-(3-fluorophenyl)-N-[4-(trifluoromethyl)phenyl]propanamide (2d)] showed an IC50 [1] of 164 µM and an IC50 [2] of 79.4 µM.
For `CC(=O)NC(Cc1cccc(F)c1)C(=O)Oc1ccc(C(F)(F)F)cc1` (centres undefined) [4-(Trifluoromethyl)phenyl 2-acetamido-3-(3-fluorophenyl)propanoate (2i)], the IC50 [1] was 34 µM and the IC50 [2] was 62.2 µM.
In the case of `CC(=O)NC(Cc1ccccc1F)C(=O)Nc1ccc([N+](=O)[O-])cc1` (centres undefined) [2-Acetamido-3-(2-fluorophenyl)-N-(4-nitrophenyl)propanamide (1c)], the IC50 [1] is reported as 154 µM and the IC50 [2] is reported as 64.4 µM.
`CC(=O)NC(Cc1ccccc1F)C(=O)Oc1ccc(Cl)cc1` (centres undefined) [4-Chlorophenyl 2-acetamido-3-(2-fluorophenyl)propanoate (1f)] showed an IC50 [1] of 82.2 µM and an IC50 [2] of 104 µM.
In the case of `CC(=O)NC(Cc1ccc(F)cc1)C(=O)O` (centres undefined) [2-acetamido-3-(4-fluorophenyl)propanoic acid (3)], the IC50 [1] is reported as 227 µM and the IC50 [2] is reported as 63.7 µM.
Work on `CC(=O)NC(Cc1ccccc1F)C(=O)Nc1ccccc1` (centres undefined) [2-Acetamido-3-(2-fluorophenyl)-N-phenylpropanamide (1e)] yielded an IC50 [1] of 121 µM and an IC50 [2] of 86.3 µM.
`CC(=O)NC(Cc1ccc(F)cc1)C(=O)Nc1ccccc1` (centres undefined) [2-Acetamido-3-(4-fluorophenyl)-N-phenylpropanamide (3e)] gave an IC50 [1] of 89.8 µM and an IC50 [2] of 99.8 µM.
With `CC(=O)NC(Cc1ccccc1F)C(=O)Oc1ccc(C(F)(F)F)cc1` (centres undefined) [4-(Trifluoromethyl)phenyl 2-acetamido-3-(2-fluorophenyl)propanoate (1i)] the IC50 [1] was 37.4 µM and 59.8 µM and the IC50 [2] was 68 µM and 62.9 µM.
Compound `CC(=O)NC(Cc1ccccc1F)C(=O)Nc1ccc(C(F)(F)F)cc1` (centres undefined) [2-Acetamido-3-(2-fluorophenyl)-N-[4-(trifluoromethyl)phenyl]propanamide (1d)] has an IC50 [1] of 218 µM and an IC50 [2] of 73.4 µM.
`CC(=O)NC(Cc1cccc(F)c1)C(=O)Nc1ccc([N+](=O)[O-])cc1` (centres undefined) [2-Acetamido-3-(3-fluorophenyl)-N-(4-nitrophenyl)propanamide (2c)] showed an IC50 [1] of 120 µM and an IC50 [2] of 70.6 µM.
`CC(=O)NC(Cc1cccc(F)c1)C(=O)Oc1ccc(Cl)cc1` (centres undefined) [4-Chlorophenyl 2-acetamido-3-(3-fluorophenyl)propanoate (2f)] was tested, and the IC50 [1] was 52.7 µM and the IC50 [2] was 115 µM.
`CC(=O)NC(Cc1ccc(F)cc1)C(=O)Nc1ccc(C(F)(F)F)cc1` (centres undefined) [2-Acetamido-3-(4-fluorophenyl)-N-[4-(trifluoromethyl)phenyl]propanamide (3d)] gave an IC50 [1] of 289 µM and an IC50 [2] of 84.1 µM.
